Assay results as given in US20190382850A1, “METHOD FOR IDENTIFYING MITOCHONDRIAL DNA IN EXTRACELLULAR VESICLES AND TREATMENT OF MTDNA-RELATED DISORDERS AND CANCER” (Memorial Sloan-Kettering Cancer Center, priority 2017, published 2019).

Experiments:
[1] = system: Jak2; experiment: EV mtDNA copy number from CAFs in hypoxia reoxygenation ± Jak2 inhibitor; assay type: cell-based; details: 500 nM every 3 days, FIG. 14
Experimental: FIG. 14 reports that hypoxia reoxygenation culture condition increases EV mtDNA copy number in a Jak2-Stat(s) dependent manner. 10-cm plates with 10^6 cells (CAFs) were cultured in 1% O2 (hypoxia) for 4 days and 3 days in normal culture conditions (20% O2, hyperoxia) in presence/absence of Jak2 inhibitor (500 nM every 3 days). Conditioned media for EV isolation and DNA level from EVs was analyzed. As control, EVs from 20% O2, hyperoxia were also collected and analyzed. MtDNA as copy number is shown as bar graphs, mean±error bars of ND1 level obtained from EV-DNA (10 ng total DNA).

[2] = system: mu-mtDNAhi HTR cells; experiment: Proliferation in presence of OXPHOS inhibitors ± HT; assay type: cell-based, human; details: with and without fulvestrant; atovaquone 1 μM, rotenone 100 nM, oligomycin 200 nM; FIG. 2f, 8e
Text: (Panel a) Representative tumor growth kinetics (BLI) of GFP+/Luciferase+MCF7 xenografts (n=10) treated with weekly fulvestrant once mammary fat pad tumors were established (after 3 months) which led to a period (4 months) of disease stability on HT (HTS) followed by exponential growth on HT (HTR). Representative H&E images of tumors and primary cultures from unsorted as well as FACS purified cancer cells (GFP+/Epcam+) and murine CAFs (GFP−/Epcam). Scale bar 20 μm. (Panel b) OXPHOS potential in tumor-derived cancer cells (panel a) was measured±HT (fulvestrant, 10 μM) by Seahorse. […] (Panel d) Percentage of metastatic lesions isolated by FACS from tumor-bearing mice (n=8/group) expressing murine mtDNA as determined by ND1 qPCR (2 ng of total DNA). Oxygen consumption rates (OCR) in murine-mtDNApos and ctrl HTR cells determined by Seahorse. (Panel e) Murine mitochondrial RNA expression (12 genes: ND1, ND2, COX2, ATP8, ATP6, COX3, ND3, ND4L, ND4, ND5, ND6, CytB) as fold change (logioscale) determined by qRT-PCR in HTR and HTS cells (panel a). […]
FIG. 8 reports that OXPHOS inhibition abrogates HTR disease. (Panel a), Proliferation potential as determined by in vitro cell growth (CalceinAM) in luminal (ER+) and triple negative cancer cell lines cultured in media with increasing concentration of glucose. […]

[3] = system: HTS cells; experiment: as above; assay type: cell-based, human; details: with and without fulvestrant
Experimental: FIG. 8 reports that OXPHOS inhibition abrogates HTR disease. (Panel a), Proliferation potential as determined by in vitro cell growth (CalceinAM) in luminal (ER+) and triple negative cancer cell lines cultured in media with increasing concentration of glucose. (Panel b), Oxygen consumption rates (OCR)±oligomycin (200 nM)/rotenone (100 nM) in MCF7 and MDA-MB-231 cells as determined by seahorse technology. (Panel c), Desmin immunohistochemical images of CAFs in HTS/HTR-derived tissues (scale bar 25 μm). (Panel d), Schematic analysis of the generation of metastatic HTR disease in mice. […] Metastatic burden was analyzed by BLI and at necropsy by histological examination (H&E). (Panel e), Proliferation potential in presence of oligomycin (100 nM) and ±HT as determined by in vitro BLI in metastatic cells from HTS and HTR cells FACS purified from xenografts (FIG. 2a). […] (Panel f), mtDNA/nDNA level in circulating EVs from HTR xenografts as determined by copy number (GAPDH, ND1: qPCR Fold change). […]
For immunoblotting assays, cells were lysed in buffer (50 mmol/L Tris at pH 7.5, 150 mmol/L NaCl, 5 μg/mL aprotinin, pepstatin, 1% NP-40, lmmol/L EDTA, 0.25% deoxycholate, and protease inhibitor cocktail tablet, Sigma). […] The enrichment of CAFs in xenografts was determined by desmin immunohistochemistry (IHC) in tumor-derived sections. […]

[4] = system: MCF7 model metastases; experiment: Metastatic assay: mastectomy followed by adjuvant HT in MCF7 tumor-bearing mice; assay type: in vivo; details: adjuvant tamoxifen after mastectomy, followed ~9 months
Experimental: FIG. 8 reports that OXPHOS inhibition abrogates HTR disease. (Panel a), Proliferation potential as determined by in vitro cell growth (CalceinAM) in luminal (ER+) and triple negative cancer cell lines cultured in media with increasing concentration of glucose. (Panel b), Oxygen consumption rates (OCR)±oligomycin (200 nM)/rotenone (100 nM) in MCF7 and MDA-MB-231 cells as determined by seahorse technology. (Panel c), Desmin immunohistochemical images of CAFs in HTS/HTR-derived tissues (scale bar 25 μm). (Panel d), Schematic analysis of the generation of metastatic HTR disease in mice. […] Metastatic burden was analyzed by BLI and at necropsy by histological examination (H&E). (Panel e), Proliferation potential in presence of oligomycin (100 nM) and ±HT as determined by in vitro BLI in metastatic cells from HTS and HTR cells FACS purified from xenografts (FIG. 2a). Error bars, mean±s.d. of BLI from n=3 samples. (Panel f), mtDNA/nDNA level in circulating EVs from HTR xenografts as determined by copy number (GAPDH, ND1: qPCR Fold change). Data are reported as error bars, mean±s.d. of n=3 independent experiments (a, e-g). *P<0.05 (Student's t-test) and GLM anova after multiple comparisons (a).
All cancer cell lines were engineered to express a GFP positive luciferase expression vector for in vitro and in vivo imaging studies. […] EV-number was determined by Nanosight. […]

Row | SMILES | generation of mtDNA high EVs [1] | sensitivity of HTR cells to HT (proliferation) [2] | combined effect with HT on cell proliferation and/or cell death of HTS cells [3] | HT treated mice with no evidence of disease [4] [%] | HT treated mice with wide-spread (>20) HTR metastases involving multiple organs [4] [%]
1 | Cc1cc(Nc2nc(N[C@@H](C)c3ncc(F)cn3)ncc2Cl)[nH]n1 [AZD 1490] | hampering the generation of mtDNA high EVs |  |  |  | 
2 | CC[C@H]1/C=C/C=C/C[C@@H](C)[C@H](O)[C@@](C)(O)C(=O)[C@@H](C)[C@H](O)[C@@H](C)C(=O)[C@@H](C)[C@H](O)[C@@H](C)/C=C/C(=O)O[C@@H]2[C@H](C)[C@H](CC1)O[C@]1(CC[C@H](C)[C@H](C[C@@H](C)O)O1)[C@H]2C [oligomycin] |  | re-sensitized HTR cells to HT | no synergistic effect |  | 
3 | C=C(C)[C@H]1Cc2c(ccc3c2O[C@@H]2COc4cc(OC)c(OC)cc4[C@@H]2C3=O)O1 [rotenone] |  | re-sensitized HTR cells to HT | no synergistic effect |  | 
4 | CC/C(=C(\c1ccccc1)c1ccc(OCCN(C)C)cc1)c1ccccc1 [tamoxifen] |  |  |  | 90 | 10
